Where a name gives a salt, the structure may show the parent alone. Read-outs that look alike come from different tables or passages of the source.
System: maximum electroshock spasm (MES), extensor spasm in mice
Assay: MES test (maximum electroshock; inhibition of extensor spasm)
Assay type: in vivo, male mice (NMRI)
Settings: oral; for responders at 50 mg/kg / ED50 / responders at 100 mg/kg: Mus musculus, po; for responders at 50 mg/kg / protective action [%] after 1 hr / protective action [%] after 3 hrs / responders at 100 mg/kg: n = 10; for ED 50 values / ED50 / ED 50 values (estimated values): MES test, 1 hour after administration; for ED50: read-out: ED 50 values; for ED 50 values (estimated values): * estimated from several tests with different dosages
Description: For the determination of the anticonvulsive/anti-epileptic activity of the substances according to the present invention the method described by E. A. Swinyard et al., J. Pharmacol. exp. Therapeut. 106, 319-330 (1952) and by L. A. Woodbury et al., Arch. int. Pharmacodyn., 92, 97-107 (1952) was used. To male mice (NMRI) with a body weight of 20-25 g via corneal electrodes, an alternating current of 50 Hz and 50 mA is applied for 0.2 sec. (HSE-shock stimulation apparatus; type 207). The maximum electroshock spasm (MES) consists of a tonic extension of the rear extremities, the clonic twitch and loss of consciousness. The activity criterion is taken as being the inhibition of the extensor spasm by the substances according to the present invention. Before the experiments the mice had free access to feed and water. The test substances were administered orally as suspensions in 0.2% agar by stomach tubes; the control animals received adequate volumes of agar. 1 hour and 3 hours after administration the test for protective action against MES was carried out.
As percentage action the percentage proportion of those animals which in the MES test were protected 100% against the extensor spasm is given. 10 animals were used per test.
The ED 50 values were determined according to Lichtfield and Wilcoxon J. Pharmacol. exp. Therapeut. 96, 99 (1949) in each case with 4 to 5 animal groups each of 8-10 animals per dosage stage.

[1] = 1 h, 50 mg/kg, 1 hr after administration, read-out: protective action [%] after 1 hr
[2] = 3 h, 50 mg/kg, 3 hrs after administration, read-out: protective action [%] after 3 hrs
[3] = 50 mg/kg, 1 hr after administration
[4] = 50 mg/kg, 3 hrs after administration
[5] = 1 h, 100 mg/kg, 1 hr after administration, read-out: protective action [%] after 1 hr
[6] = 3 h, 100 mg/kg, 3 hrs after administration, read-out: protective action [%] after 3 hrs
[7] = 50 mg/kg, 3 hrs after administration, hydrochloride
[8] = 100 mg/kg, 1 hr after administration
[9] = 100 mg/kg, 3 hrs after administration

SMILES | responders at 50 mg/kg [1] [%] | responders at 50 mg/kg [2] [%] | responders at 100 mg/kg [5] [%] | responders at 100 mg/kg [6] [%] | ED 50 values (estimated values) [mg/kg] | other results
COC1=CC(=O)OC1C(OC(=O)[C@@H]1CCCN1)c1ccccc1Br (single isomer, unassigned) [127 A] | 100 | 100 |  |  |  | 
Br.COC1=CC(=O)OC1C(OC(=O)CN)c1ccccc1Cl (single isomer, unassigned; (+)) [Example 151, (+)-threo-5-[2-chlorophenyl-(glycyloxy)-methyl]-4-methoxy-2(5H)-furanone hydrobromide] |  |  |  |  |  | protective action [%] after 1 hr [3]: 100%; protective action [%] after 3 hrs [4]: 100%; ED 50 values: 12.2 mg/kg
COC1=CC(=O)OC1C(OC(=O)[C@@H](N)c1ccccc1)c1ccccc1Cl (single isomer, unassigned) [117 A] | 100 |  |  |  |  | protective action [%] after 3 hrs [4]: 100%; ED50 (1 h): 16 mg/kg
COC1=CC(=O)OC1C(OC(=O)[C@@H]1CCCN1C(=O)OCc1ccccc1)c1ccccc1C(F)(F)F (single isomer, unassigned) [138 A] |  |  | 30 | 20 |  | 
COC1=CC(=O)OC1C(OC(=O)[C@@H](N)CCC(=O)O)c1ccccc1Cl (single isomer, unassigned) [123 A] | 70 | 20 |  |  |  | 
COC1=CC(=O)O[C@H]1[C@H](OC(=O)CN)c1ccccc1Cl (relative stereo) [Example 112, threo-5-[2-chlorophenyl-glycyloxy)methyl-4-methoxy-2(5H)-furanone hydrochloride] |  |  |  |  |  | protective action [%] after 3 hrs [7]: 70%; ED 50 values (hydrochloride, 60 min): 22.2 mg/kg
COC1=CC(=O)OC1C(OC(=O)[C@@H]1CCCN1)c1ccccc1F (single isomer, unassigned) [129 A] |  |  |  |  | 40 to 50 | protective action [%] after 1 hr [8]: 100%; protective action [%] after 3 hrs [9]: 100%
COC1=CC(=O)OC1C(OC(=O)[C@H](C)N)c1ccc(Cl)cc1Cl (stereo partly drawn) [Example 133, threo-5-[L-alanyloxy-(2,4-dichlorophenyl)-methyl]-4-methoxy-2(5H)-furanone hydrobromide] |  |  | 100 | 100 | 60 to 70 | 
COC1=CC(=O)O[C@H]1[C@H](OC(=O)[C@@H]1CCCN1)c1ccccc1Cl [104 B] |  |  |  |  |  | protective action [%] after 1 hr [8]: 60%; protective action [%] after 3 hrs [9]: 0%; ED 50 values (60 min): 105 mg/kg
COC1=CC(=O)O[C@H]1[C@H](OC(=O)CNC(C)=O)c1ccccc1Cl (relative stereo) [Example 106, threo-5-[N-acetylglycyloxy-(2-chlorophenyl)-methyl]-4-methoxy-2(5H)-furanone] | 100 | 70 |  |  |  | ED50 (1 h): 23.1 mg/kg
COC1=CC(=O)OC1C(OC(=O)[C@@H](N)CCC(N)=O)c1ccccc1Cl (single isomer, unassigned) [122 A] | 100 | 100 |  |  | 15 to 20 | 
COC1=CC(=O)OC1C(OC(=O)[C@@H](N)c1ccccc1)c1ccccc1Cl (single isomer, unassigned) [117 B] |  |  |  |  |  | protective action [%] after 1 hr [3]: 90%; protective action [%] after 3 hrs [4]: 0%; ED 50 values (60 min): 25.3 mg/kg
Br.COC1=CC(=O)OC1C(OC(=O)CN)c1ccccc1Cl (single isomer, unassigned; (-)) [Example 153] |  |  |  |  |  | protective action [%] after 1 hr [8]: 40%; protective action [%] after 3 hrs [9]: 0%
COC1=CC(=O)OC1C(OC(=O)[C@@H]1CCCN1)c1ccccc1C (single isomer, unassigned) [141 A] |  |  | 40 | 10 | 110 to 120 | 
COC1=CC(=O)OC1C(OC(=O)[C@@H]1CCCN1)c1ccccc1 (some centres unmarked) [110 A] |  |  | 100 | 0 | 40 to 50 | 
COC1=CC(=O)O[C@H]1[C@H](OC(=O)CNC(C)=O)c1ccc(Cl)cc1Cl (relative stereo) [Example 132, threo-5-[N-acetylglycyloxy-(2,4-dichlorophenyl)-methyl]-4-methoxy-2(5H)-furanone] |  |  | 20 | 50 |  | 
COC1=CC(=O)OC1C(OC(=O)[C@H](N)c1ccccc1)c1ccccc1Cl (some centres unmarked) [119 B] | 100 | 20 |  |  |  | ED50 (1 h): 37.6 mg/kg

SMILES | responders at 50 mg/kg [1] [%] | responders at 50 mg/kg [2] [%] | responders at 100 mg/kg [5] [%] | responders at 100 mg/kg [6] [%] | ED 50 values (estimated values) [mg/kg] | other results
COC1=CC(=O)O[C@H]1[C@H](OC(=O)CCCN)c1ccccc1Cl (relative stereo) [Example 114, threo-5-[4-aminobutanoyloxy-(2-chlorophenyl)-methyl]-4-methoxy-2(5H)-furanone hydrochloride] |  |  |  |  |  | protective action [%] after 3 hrs [7]: 30%; ED50 (1 h): 40 mg/kg
COC1=CC(=O)O[C@H]1[C@H](OC(=O)CN)c1ccccc1 (relative stereo) [Example 105, threo-5-[glycyloxy-(phenyl)-methyl]-4-methoxy-2(5H)-furanone hydrobromide] |  |  | 70 | 0 |  | ED50 (1 h): 87.5 mg/kg
COC1=CC(=O)OC1C(OC(=O)[C@H](CCSC)NC(C)=O)c1ccccc1Cl (single isomer, unassigned) [124 A] |  |  | 100 | 20 | 25 to 35 | 
COC1=CC(=O)OC1C(OC(=O)[C@@H]1CCCN1C(C)=O)c1ccccc1Cl (single isomer, unassigned) [107 A] |  |  | 100 | 60 | 10 to 15 | 
COC1=CC(=O)OC1C(OC(=O)[C@@H]1CCC(=O)N1)c1ccccc1Cl (single isomer, unassigned) [125 A] | 100 | 80 |  |  |  | 
COC1=CC(=O)O[C@@H]1[C@@H](OC(=O)[C@@H]1CCCN1)c1ccccc1Cl [104 A] | 100 | 100 |  |  |  | 
COC1=CC(=O)O[C@H]1[C@H](OC(=O)CCCN)c1ccccc1Cl (relative stereo) [Example 113, threo-5-[4-aminobutanoyloxy-(2-chlorophenyl)-methyl]-4-methoxy-2(5H)-furanone hydrobromide] | 100 | 50 |  |  | 25 to 35 | 
COC1=CC(=O)OC1C(OC(=O)[C@@H]1CCCN1C(=O)OCc1ccccc1)c1cc(Cl)ccc1Cl (single isomer, unassigned) [136 A] | 60 | 50 |  |  | 40 to 50 | 
COC1=CC(=O)O[C@H]1[C@H](OC(=O)CN)c1ccc(Cl)cc1Cl (relative stereo) [Example 130, threo-5-[2,4-dichlorophenyl-(glycyloxy)-methyl]-4-methoxy-2(5H)-furanone hydrobromide] |  |  | 100 | 100 | 40 to 50 | 
COC1=CC(=O)OC1C(OC(=O)[C@@H]1CCCN1)c1ccccc1C(F)(F)F (some centres unmarked) [139 B] |  |  | 40 | 10 |  | 
COC1=CC(=O)O[C@H]1[C@H](OC(=O)CCCNC(C)=O)c1ccccc1Cl (relative stereo) [Example 115, threo-5-[4-(N-acetylamino)-butanoyloxy-(2-chlorophenyl)methyl]-4-methoxy-2(5H)-furanone] |  |  | 100 | 100 | 30 to 40 | 
COC1=CC(=O)OC1C(OC(=O)[C@@H]1CCCN1)c1ccc(Cl)cc1Cl (single isomer, unassigned) [135 A] |  |  | 100 | 100 | 65 to 75 | 
COC1=CC(=O)O[C@H]1[C@H](OC(=O)C1(N)CCCCC1)c1ccccc1Cl (relative stereo) [Example 157, threo-5-[1-amino-1-cyclohexylcarbonyloxy-(2-chlorophenyl)-methyl]-4-methoxy-2(5H)-furanone hydrobromide] |  |  | 100 | 40 |  | ED50 (1 h): 27.5 mg/kg
COC1=CC(=O)OC1C(OC(=O)[C@@H]1CCCN1)c1ccccc1F (single isomer, unassigned) [129 B] |  |  |  |  | 95 to 105 | protective action [%] after 1 hr [8]: 50%; protective action [%] after 3 hrs [9]: 0%
COC1=CC(=O)OC1C(OC(=O)[C@@H]1CCCN1)c1cc(Cl)ccc1Cl (single isomer, unassigned) [137 A] | 100 | 100 |  |  |  | 
COC1=CC(=O)O[C@H]1[C@H](OC(=O)CN)c1ccc(Cl)cc1Cl (relative stereo) [Example 131, threo-5-[2,4-dichlorophenyl-(glycyloxy)-methyl]-4-methoxy-2(5H)-furanone hydrochloride] |  |  |  |  |  | ED50 (1 h): 54.5 mg/kg

Reference: US4965283A, “Amino acid esters, process for the preparation thereof and use thereof” (Dr. Willmar Schwabe GmbH & Co., priority 1987, dated 1990)
